Columns and labels:
[1] = test system: Poliovirus I/II/III (mixed vaccine strains of three subtypes); assay: microbe, parasite or virus in culture; details: Enterovirus C, RD, 96 h
EV-D68 [2] = test system: EV-D68
CB3 virus [3] = assay: organism not typed; details: Vero, 120 h
CB3 virus [4] = test system: CB3 virus
CA16 = assay: organism not typed; type: cell-based; details: RD, 96 h
EV71 virus [5] = assay: microbe, parasite or virus in culture; details: Enterovirus A, EV71, RD, 96 h
CA6 = assay: organism not typed; type: cell-based; details: RD, 96 h
mTORC1 = mTORC1 (Homo sapiens, UniProt P42345); details: RD cells, 20 μM, 2 hours, insulin medium, Western blot
EV-D68 [6] = assay: microbe, parasite or virus in culture; details: Enterovirus D, EVD68, RD, 96 h
mTORC2 = mTORC2 (Homo sapiens, UniProt P42345); details: RD cells, 20 μM, 2 hours, insulin medium, Western blot
CA10 = assay: organism not typed; type: cell-based; details: RD, 96 h
EV71 virus [7] = test system: EV71 virus
mTOR kinase = mTOR kinase (Homo sapiens, UniProt P42345); assay: Inhibitory activity on mTOR kinase (TR-FRET, GFP-4E-BP1 substrate); type: biochemical; details: fit parameter of concentration-mTOR kinase inhibition curve
[8] = test system: Poliovirus I/II/III (mixed vaccine strains of three subtypes)

Nc1ccc(-c2ccc3ncc4ccc(=O)n(-c5cccc(C(F)(F)F)c5)c4c3c2)cn1 [compound of Formula I, 9-(6-amino-pyridin-3-yl)-1-(3-trifluoromethyl-phenyl)-1H-benzo[h][1,6]naphthyridin-one] was tested, and the IC50 [1] was 52 nM, the “inhibitory effect on enterovirus (in words)” value (from here on “inhibitory effect”) (EV-D68 [2]) was “significant inhibitory effect” and the IC50 (CB3 virus [3]) was 5 nM. The “inhibitory effect” value (CB3 virus [4]) was “significant inhibitory effect”, the IC50 (CA16) was greater than 10000 nM and the IC50 (EV71 virus [5]) was 10 nM. The IC50 (CA6) was greater than 10000 nM, the “phosphorylation expression levels of p70 (Thr389 of p70S6K1)” value (mTORC1) was “significantly reduced” and the IC50 (EV-D68 [6]) was 5 nM. For the same compound, the “phosphorylation level of Akt (Ser473)” value (mTORC2) was “significantly down-regulate”, the IC50 (CA10) was greater than 10000 nM and the “inhibitory effect” value (EV71 virus [7]) was “significant inhibitory effect”. It also gave a Bottom (mTOR kinase) of 3.74, a HillSlope (mTOR kinase) of 1.14 and a Top (mTOR kinase) of 103.60. The “inhibitory effect” value [8] was “significant inhibitory effect”.
